Data as given in publication PMC10620989, “Going beyond Binary: Rapid Identification of Protein–Protein Interaction Modulators Using a Multifragment Kinetic Target-Guided Synthesis Approach” (Journal of Medicinal Chemistry, 2023).
Like-named read-outs stand apart in the source and are kept apart here.

What was measured:
Mcl-1 [1] = target: T1, Mcl-1 (Mus musculus, UniProt P97287); experiment: Multifragment KTGS screen against Mcl-1 (5 TA x 38 SZ per well), LC-MS/MS; settings: for Amplification coefficient 5TA x 38SZ: multifragment KTGS, 190 combinations per well, 10 μM Mcl-1, 20 μM each fragment, pH 7.4, 37 °C, 10 h, peak area with protein / without protein; for KTGS hit call against Mcl-1: multifragment incubation, 10 µM Mcl-1, LC-MS/MS traces with vs without protein
[2] = target: GST-tagged mouse Mcl-1-(152–309) (Mus musculus, UniProt P97287); experiment: Fluorescence polarization competitive binding assay, GST-Mcl-1 / FITC-Bim-BH3; settings: for inhibition at 50 µM: compound at 50 µM; for inhibition at 100 µM: read-out: inhibition in the fluorescence polarization assay, fragments tested individually
Mcl-1 [3] = target: T1, Mcl-1; experiment: Binary KTGS incubation (1 TA x 1 SZ) with Mcl-1, LC-MS/MS; settings: binary incubation mixtures with and without Mcl-1

T1 sequence (P97287 whole entry, the tested form may be a part): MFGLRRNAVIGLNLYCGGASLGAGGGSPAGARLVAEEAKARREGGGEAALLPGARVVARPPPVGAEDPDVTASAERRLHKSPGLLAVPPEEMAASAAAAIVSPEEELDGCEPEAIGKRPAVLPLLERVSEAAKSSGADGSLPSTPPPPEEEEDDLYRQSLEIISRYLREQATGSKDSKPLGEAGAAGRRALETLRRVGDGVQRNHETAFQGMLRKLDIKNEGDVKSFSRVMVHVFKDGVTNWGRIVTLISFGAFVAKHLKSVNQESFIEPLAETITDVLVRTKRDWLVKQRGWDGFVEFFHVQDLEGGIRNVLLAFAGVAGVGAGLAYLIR
GST-tagged mouse Mcl-1-(152–309), sequence (P97287 152-309): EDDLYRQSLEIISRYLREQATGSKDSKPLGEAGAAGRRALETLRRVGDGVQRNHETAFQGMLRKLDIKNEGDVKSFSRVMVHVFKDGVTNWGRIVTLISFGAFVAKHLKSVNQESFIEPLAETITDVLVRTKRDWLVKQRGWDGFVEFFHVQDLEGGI

| SMILES | Amplification coefficient 5TA x 38SZ (Mcl-1 [1]) | inhibition at 50 µM ([2]; FP) [%] | Amplification coefficient 1TA x 1SZ (Mcl-1 [3]) | inhibition at 100 µM [2] [%] | IC50 ([2]; FP, GST-Mcl-1 and fluorescein-labeled Bim BH3 peptide, read-out: IC50 on Mcl-1) [µM] | IC50 ([2]; IC50 on Mcl-1) [µM] | KTGS hit call against Mcl-1 (Mcl-1 [1]) |
| --- | --- | --- | --- | --- | --- | --- | --- |
| COc1cccc(CN(CCSc2ccccc2)Cc2ccc(S(=O)(=O)NC(=O)c3ccc4c(c3)c(C(=O)c3cccs3)cn4C)cc2)c1 [SZ17TA45, O=C(NS(C1=CC=C(CN(CCSC2=CC=CC=C2)CC3=CC(OC)=CC=C3)C=C1)(=O)=O)C4=CC(C(C(C5=CC=CS5)=O)=CN6C)=C6C=C4] | 16 | 34.5 | 20 |  |  |  |  |
| [N-]=[N+]=NS(=O)(=O)c1ccc(NCCSc2ccccc2)c([N+](=O)[O-])c1 [SZ4] |  |  |  | 23 |  |  |  |
| COc1cccc(CN(CCSc2ccccc2)Cc2ccc(S(=O)(=O)NC(=O)c3ccc(C(c4c[nH]c5ccccc45)c4c[nH]c5ccccc45)cc3)cc2)c1 [SZ17TA31, O=S(C1=CC=C(C=C1)CN(CCSC2=CC=CC=C2)CC3=CC=CC(OC)=C3)(NC(C(C=C4)=CC=C4C(C5=CNC6=C5C=CC=C6)C7=CNC8=C7C=CC=C8)=O)=O] | 21 | 42.5 | 9 |  |  |  |  |
| O=C(NS(=O)(=O)c1ccc(-c2ccc(Oc3ccccc3)cc2)cc1)c1ccc(CCc2ccccn2)cc1 [SZ35TA17, O=C(NS(C1=CC=C(C2=CC=C(OC3=CC=CC=C3)C=C2)C=C1)(=O)=O)C4=CC=C(CCC5=NC=CC=C5)C=C4] | 9 | 89.2 | 9 |  |  |  |  |
| O=C(NS(=O)(=O)c1ccc(CN(CCSc2ccccc2)Cc2c(F)cccc2Cl)cc1)c1ccc(-c2ccc(F)cc2)cc1 [SZ15TA14, O=C(NS(C1=CC=C(CN(CCSC2=CC=CC=C2)CC3=C(F)C=CC=C3Cl)C=C1)(=O)=O)C4=CC=C(C5=CC=C(F)C=C5)C=C4] | 7 | 58.8 | 6 |  |  |  |  |
| COc1cc2c(cc1OC)C(c1ccccc1)N(Cc1ccc(S(=O)(=O)NC(=O)CCCN3C(=O)C(c4ccc(F)cc4F)=C(c4ccc(F)cc4F)C3=O)cc1)CC2 (stereo not shown) [SZ8TA20, O=C(NS(C1=CC=C(CN2CCC(C=C(OC)C(OC)=C3)=C3C2C4=CC=CC=C4)C=C1)(=O)=O)CCCN5C(C(C6=C(F)C=C(F)C=C6)=C(C7=CC=C(F)C=C7F)C5=O)=O] | 20 | 19.2 | 10 |  |  |  |  |
| COc1ccc(Cc2ccc(C(=O)NS(=O)(=O)c3ccc(-c4ccc(Oc5ccccc5)cc4)cc3)cc2)c(OC)c1OC [SZ35TA24, O=C(NS(C1=CC=C(C2=CC=C(OC3=CC=CC=C3)C=C2)C=C1)(=O)=O)C4=CC=C(CC5=CC=C(OC)C(OC)=C5OC)C=C4] | 9 | 76.4 | 8 |  |  |  |  |
| [N-]=[N+]=NS(=O)(=O)c1ccc(CN(CCSc2ccccc2)Cc2ccc(S(=O)(=O)N=[N+]=[N-])cc2)cc1 [SZ9] |  |  |  | 13 |  |  |  |
| Cc1cc(OCCCc2c(C(=O)NS(=O)(=O)c3ccc(C(=O)O)o3)[nH]c3c(-c4c(C)nn(C)c4C)c(Cl)ccc23)cc(C)c1Cl [compound 60, O=C(NS(C1=CC=C(C(O)=O)O1)(=O)=O)C2=C(CCCOC3=CC(C)=C(Cl)C(C)=C3)C4=CC=C(Cl)C(C5=C(C)N(C)N=C5C)=C4N2, reference compound] |  | > 99 |  |  |  |  |  |
| Cn1cc(C(=O)C2CCCCC2)c2cc(C(=O)NS(=O)(=O)c3ccc(-c4ccc(C(C)(C)C)cc4)cc3)ccc21 [SZ11TA40, O=C(NS(C1=CC=C(C2=CC=C(C(C)(C)C)C=C2)C=C1)(=O)=O)C3=CC(C(C(C4CCCCC4)=O)=CN5C)=C5C=C3] | 8 | > 99 | 5.5 |  | 21.9 |  |  |
| O=C(NS(=O)(=O)c1ccc(CN(CCSc2ccccc2)Cc2ccc3c(c2)OCO3)cc1)c1cccc(NCCc2ccccc2)c1 [SZ31TA44, O=C(NS(C1=CC=C(CN(CC2=CC(OCO3)=C3C=C2)CCSC4=CC=CC=C4)C=C1)(=O)=O)C5=CC(NCCC6=CC=CC=C6)=CC=C5] | 10 | 36.5 | 12 |  |  |  |  |
| O=C(NS(=O)(=O)c1ccc(CN(CCSc2ccccc2)Cc2c(F)cccc2Cl)cc1)c1cccc2ccccc12 [SZ15TA7, O=C(NS(C1=CC=C(CN(CCSC2=CC=CC=C2)CC3=C(F)C=CC=C3Cl)C=C1)(=O)=O)C4=C(C=CC=C5)C5=CC=C4] | 8 | 98.4 | 9 |  |  | 15.4 |  |
| Cn1cc(C(=O)c2cccs2)c2cc(C(=O)NS(=O)(=O)c3ccc(CN(CCSc4ccccc4)Cc4ccc5c(c4)OCO5)cc3)ccc21 [SZ31TA45, O=C(NS(C1=CC=C(CN(CC2=CC(OCO3)=C3C=C2)CCSC4=CC=CC=C4)C=C1)(=O)=O)C5=CC(C(C(C6=CC=CS6)=O)=CN7C)=C7C=C5] | 25 | 40.2 | 6 |  |  |  |  |
| CCOc1ccc(-c2ccc3c(c2)c(C(=O)NS(=O)(=O)c2cccc4c(N(C)C)cccc24)cn3C)cc1F [SZ21TA23, O=C(NS(C1=CC=CC2=C1C=CC=C2N(C)C)(=O)=O)C(C3=C4C=CC(C5=CC=C(OCC)C(F)=C5)=C3)=CN4C] | 7 | 42.8 | 4 |  |  |  |  |
| O=C(NS(=O)(=O)c1ccc(CN(CCSc2ccccc2)Cc2ccc3c(c2)OCO3)cc1)c1ccc(-c2ccc(F)cc2)cc1 [SZ31TA14, O=C(NS(C1=CC=C(CN(CC2=CC(OCO3)=C3C=C2)CCSC4=CC=CC=C4)C=C1)(=O)=O)C5=CC=C(C6=CC=C(F)C=C6)C=C5] | 10 | 59.5 | 4 |  |  |  |  |
| NS(=O)(=O)c1ccc(CN(CCSc2ccccc2)Cc2ccc(S(=O)(=O)NC(=O)c3cccc(NCCc4ccccc4)c3)cc2)cc1 [SZ10TA44, O=C(NS(C1=CC=C(CN(CCSC2=CC=CC=C2)CC3=CC=C(S(=O)(N)=O)C=C3)C=C1)(=O)=O)C4=CC(NCCC5=CC=CC=C5)=CC=C4] | 12 | 63.4 | 9 |  |  |  |  |
| Cn1cc(C(=O)C2CCCCC2)c2cc(C(=O)NS(=O)(=O)c3ccc(COc4ccc5c(=O)cc(-c6ccccc6)oc5c4)cc3)ccc21 [SZ14TA40, O=C(NS(C1=CC=C(COC2=CC=C(C(C=C(C3=CC=CC=C3)O4)=O)C4=C2)C=C1)(=O)=O)C5=CC=C6C(C(C(C7CCCCC7)=O)=CN6C)=C5] | 24 | 93.1 | 15 |  |  |  |  |
| O=C(Cn1c2ccccc2c2ccccc21)NS(=O)(=O)c1ccc(CN(CCSc2ccccc2)Cc2c(F)cccc2Cl)cc1 [SZ15TA15, O=C(NS(C1=CC=C(CN(CCSC2=CC=CC=C2)CC3=C(F)C=CC=C3Cl)C=C1)(=O)=O)CN4C(C=CC=C5)=C5C6=C4C=CC=C6] | 9 | 53.6 | 10 |  |  |  |  |
| O=C(NS(=O)(=O)c1ccc(-c2ccc(Oc3ccccc3)cc2)cc1)c1cccc2ccccc12 [SZ35TA7, O=C(NS(C1=CC=C(C2=CC=C(OC3=CC=CC=C3)C=C2)C=C1)(=O)=O)C4=CC=CC5=C4C=CC=C5] | 25 | 87.8 | 4 |  |  |  |  |
| [N-]=[N+]=NS(=O)(=O)c1ccc(CN(CCSc2ccccc2)Cc2ccc(S(=O)(=O)NC(=O)c3ccc(-c4ccccn4)cc3)cc2)cc1 [SZ9TA25, O=C(NS(C1=CC=C(CN(CCSC2=CC=CC=C2)CC3=CC=C(S(=O)(N=[N+]=[N-])=O)C=C3)C=C1)(=O)=O)C4=CC=C(C5=NC=CC=C5)C=C4] | 15 | 47.6 | 8 |  |  |  |  |
| CC1(C)CCN(c2ccc(C(=O)NS(=O)(=O)c3ccc(CNc4cccc([N+](=O)[O-])c4)cc3)cc2)CC1 [SZ12TA2, O=C(NS(C1=CC=C(CNC2=CC=CC([N+]([O-])=O)=C2)C=C1)(=O)=O)C(C=C3)=CC=C3N4CCC(C)(C)CC4] | 7 | 54.1 | 4 |  |  |  |  |
| Cn1cc(C(=O)C2CCCCC2)c2cc(C(=O)NS(=O)(=O)c3ccc(CN(CCSc4ccccc4)Cc4ccc5c(c4)OCO5)cc3)ccc21 [SZ31TA40, O=C(NS(C1=CC=C(CN(CCSC2=CC=CC=C2)CC3=CC(OCO4)=C4C=C3)C=C1)(=O)=O)C5=CC=C6C(C(C(C7CCCCC7)=O)=CN6C)=C5] | 56 | -52.4 | 8 |  |  |  |  |
| NS(=O)(=O)c1ccc(CN(CCSc2ccccc2)Cc2ccc(S(=O)(=O)NC(=O)c3ccc(-c4ccccn4)cc3)cc2)cc1 [SZ10TA25, O=C(NS(C1=CC=C(CN(CCSC2=CC=CC=C2)CC3=CC=C(S(=O)(N)=O)C=C3)C=C1)(=O)=O)C4=CC=C(C5=NC=CC=C5)C=C4] | 12 | 93.6 | 5 |  |  |  |  |
| CC(=O)Nc1ccc(S(=O)(=O)NC(=O)Cn2c3ccccc3c3ccccc32)cc1 [SZ3TA15] |  |  |  |  |  |  | non-hit |
| CC(C)(C)c1ccc(-c2ccc(S(=O)(=O)NC(=O)c3ccccc3)cc2)cc1 [SZ11TA1] |  |  |  |  |  |  | non-hit |
